This is an account of results in patent US10934285B2, “Compounds and compositions for inhibiting the activity of SHP2” (Novartis AG, priority 2016, dated 2021).

The test has as its target SHP2 (Homo sapiens (Human), UniProt Q06124). Description: SHP2 Allosteric Inhibition Assay. It counts as biochemical. The conditions noted are these: 0.5 nM SHP2 activated with 0.5 μM peptide IRS1_pY1172(dPEG8)pY1222; surrogate substrate DiFMUP; prompt fluorescence. The source says: SHP2 Allosteric Inhibition Assay
SHP2 is allosterically activated through binding of bis-tyrosyl-phorphorylated peptides to its Src Homology 2 (SH2) domains. The latter activation step leads to the release of the auto-inhibitory interface of SHP2, which in turn renders the SHP2 protein tyrosine phosphatase (PTP) active and available for substrate recognition and reaction catalysis. The catalytic activity of SHP2 was monitored using the surrogate substrate DiFMUP in a prompt fluorescence assay format.
After 30-60 minutes incubation at 25° C., the surrogate substrate DiFMUP (Invitrogen, cat #D6567) was added to the reaction and incubated at 25° C. for 30 minutes. […] The inhibitor dose response curves were analyzed using normalized IC50 regression curve fitting with control based normalization.

Chain of SHP2 (Q06124 whole entry): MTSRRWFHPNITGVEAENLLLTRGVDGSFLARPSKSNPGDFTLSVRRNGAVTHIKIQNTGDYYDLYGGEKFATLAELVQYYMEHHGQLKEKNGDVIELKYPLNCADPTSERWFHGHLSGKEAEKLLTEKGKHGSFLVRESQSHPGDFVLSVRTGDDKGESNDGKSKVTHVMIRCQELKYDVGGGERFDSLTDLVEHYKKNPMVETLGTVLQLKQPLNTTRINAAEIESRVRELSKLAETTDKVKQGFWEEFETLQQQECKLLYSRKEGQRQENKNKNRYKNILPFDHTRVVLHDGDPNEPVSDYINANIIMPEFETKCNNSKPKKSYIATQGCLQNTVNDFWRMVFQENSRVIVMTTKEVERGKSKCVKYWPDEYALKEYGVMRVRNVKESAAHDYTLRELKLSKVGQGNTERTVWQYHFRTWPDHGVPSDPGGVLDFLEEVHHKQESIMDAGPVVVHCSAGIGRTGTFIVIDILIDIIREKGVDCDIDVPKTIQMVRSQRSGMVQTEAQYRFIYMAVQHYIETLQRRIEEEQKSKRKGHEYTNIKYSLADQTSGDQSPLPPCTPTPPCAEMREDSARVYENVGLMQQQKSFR

`CC1(CN)CCN(c2nnc(Sc3cccc(NC(=O)C4=C(O)CN(c5ccccc5)C4=O)c3Cl)c(N)n2)CC1` [Example 51, N-(3-((5-amino-3-(4-(aminomethyl)-4-methylpiperidin-1-yl)-1,2,4-triazin-6-yl)thio)-2-chlorophenyl)-4-hydroxy-2-oxo-1-phenyl-2,5-dihydro-1H-pyrrole-3-carboxamide]: the midpoint of inhibition, the IC50, lay at 12 nM.
Then `CC1(N)CCN(c2nnc(Sc3cccc(NC(=O)C4=C(O)CN(c5ccccc5)C4=O)c3Cl)c(N)n2)CC1` [Example 52, N-(3-((5-amino-3-(4-amino-4-methylpiperidin-1-yl)-1,2,4-triazin-6-yl)thio)-2-chlorophenyl)-4-hydroxy-2-oxo-1-phenyl-2,5-dihydro-1H-pyrrole-3-carboxamide], with 3 nM.
In the case of `CC1(N)CCN(c2cnc(Sc3cccc(NC(=O)C4=C(O)CN(c5ccccc5)C4=O)c3Cl)c(N)n2)CC1` [Example 53, N-(3-((3-amino-5-(4-amino-4-methylpiperidin-1-yl)pyrazin-2-yl)thio)-2-chlorophenyl)-4-hydroxy-2-oxo-1-phenyl-2,5-dihydro-1H-pyrrole-3-carboxamide] it was 4.4 nM; in that of `CN1C(=O)C(C(=O)Nc2cccc(Sc3ncc(N4CCC(C)(N)CC4)nc3N)c2Cl)=C(O)C1Cc1ccccc1` (centres unmarked) [Example 54, N-(3-((3-amino-5-(4-amino-4-methylpiperidin-1-yl)pyrazin-2-yl)thio)-2-chlorophenyl)-5-benzyl-4-hydroxy-1-methyl-2-oxo-2,5-dihydro-1H-pyrrole-3-carboxamide], 7.3 nM.
In the case of `CCC1C(O)=C(C(=O)Nc2cccc(Sc3ncc(N4CCC(C)(N)CC4)nc3N)c2Cl)C(=O)N1C` (centres unmarked) [Example 55, N-(3-((3-amino-5-(4-amino-4-methylpiperidin-1-yl)pyrazin-2-yl)thio)-2-chlorophenyl)-5-ethyl-4-hydroxy-1-methyl-2-oxo-2,5-dihydro-1H-pyrrole-3-carboxamide] it was 2.8 nM.
Consider `CNC1(C)CCN(c2cnc(Sc3cccc(NC(=O)C4=C(O)CN(c5ccccc5)C4=O)c3Cl)c(N)n2)CC1` [Example 56, N-(3-((3-amino-5-(4-methyl-4-(methylamino)piperidin-1-yl)pyrazin-2-yl)thio)-2-chlorophenyl)-4-hydroxy-2-oxo-1-phenyl-2,5-dihydro-1H-pyrrole-3-carboxamide], for which the 50% inhibitory concentration (IC50) (as a rule, the concentration that inhibits the measured activity by half) was determined as 6.6 nM.
Then `C[C@@H]1CN(c2cnc(Sc3cccc(NC(=O)C4=C(O)CN(c5ccccc5)C4=O)c3Cl)c(N)n2)C[C@H](C)N1` [Example 57, N-(3-((3-amino-5-(cis-3,5-dimethylpiperazin-1-yl)pyrazin-2-yl)thio)-2-chlorophenyl)-4-hydroxy-2-oxo-1-phenyl-2,5-dihydro-1H-pyrrole-3-carboxamide], with 11 nM; and `CC1(N)CCN(c2cnc(Sc3cccc(NC(=O)c4c(O)c5ccccc5[nH]c4=O)c3Cl)c(N)n2)CC1` [Example 58, N-(3-((3-Amino-5-(4-amino-4-methylpiperidin-1-yl)pyrazin-2-yl)thio)-2-chlorophenyl)-4-hydroxy-2-oxo-1,2-dihydroquinoline-3-carboxamide], with 72 nM; and `CN1C(=O)C(C(=O)Nc2cccc(Sc3ncc(N4CCC(C)(N)CC4)nc3N)c2Cl)=C(O)C1(C)C` [Example 59, N-(3-((3-amino-5-(4-amino-4-methylpiperidin-1-yl)pyrazin-2-yl)thio)-2-chlorophenyl)-4-hydroxy-1,5,5-trimethyl-2-oxo-2,5-dihydro-1H-pyrrole-3-carboxamide], with less than 3 nM.
In the case of `O=C(Nc1cccc(Sc2ccc3nc(N4CCCCC4)[nH]c3n2)c1Cl)C1=C(O)[C@H](Cc2ccccc2)NC1=O` [Example 60, (S)-5-benzyl-N-(2-chloro-3-((2-(piperidin-1-yl)-3H-imidazo[4,5-b]pyridin-5-yl)thio)phenyl)-4-hydroxy-2-oxo-2,5-dihydro-1H-pyrrole-3-carboxamide] it was 11 nM.
In the case of `CN1C(=O)C(C(=O)Nc2cccc(Sc3ccc4nc(N5CCCCC5)[nH]c4n3)c2Cl)=C(O)C1Cc1ccccc1` (centres unmarked) [Example 61, 5-benzyl-N-(2-chloro-3-((2-(piperidin-1-yl)-3H-imidazo[4,5-b]pyridin-5-yl)thio)phenyl)-4-hydroxy-1-methyl-2-oxo-2,5-dihydro-1H-pyrrole-3-carboxamide] it was 22 nM; in that of `CCC1C(O)=C(C(=O)Nc2cccc(Sc3ccc4nc(N5CCCCC5)[nH]c4n3)c2Cl)C(=O)N1C` (centres unmarked) [Example 62, N-(2-chloro-3-((2-(piperidin-1-yl)-3H-imidazo[4,5-b]pyridin-5-yl)thio)phenyl)-5-ethyl-4-hydroxy-1-methyl-2-oxo-2,5-dihydro-1H-pyrrole-3-carboxamide], 25 nM; in that of `CCC1C(O)=C(C(=O)Nc2cccc(Sc3ccc4nc(N5CCCCC5)[nH]c4n3)c2Cl)C(=O)N1c1ccccc1` (centres unmarked) [Example 63, N-(2-chloro-3-((2-(piperidin-1-yl)-3H-imidazo[4,5-b]pyridin-5-yl)thio)phenyl)-5-ethyl-4-hydroxy-2-oxo-1-phenyl-2,5-dihydro-1H-pyrrole-3-carboxamide], 52 nM.
For `O=C(Nc1cccc(Sc2ccc3nc(N4CCCCC4)[nH]c3n2)c1Cl)C1=C(O)[C@H](c2ccccc2)NC1=O` [Example 64, (S)-N-(2-chloro-3-((2-(piperidin-1-yl)-3H-imidazo[4,5-b]pyridin-5-yl)thio)phenyl)-4-hydroxy-2-oxo-5-phenyl-2,5-dihydro-1H-pyrrole-3-carboxamide], the 50% inhibitory concentration (IC50) stood at 90 nM.
Then `CN1C(=O)C(C(=O)Nc2cccc(Sc3ccc4nc(N5CCCCC5)[nH]c4n3)c2Cl)=C(O)C1(C)C` [Example 65, N-(2-chloro-3-((2-(piperidin-1-yl)-3H-imidazo[4,5-b]pyridin-5-yl)thio)phenyl)-4-hydroxy-1,5,5-trimethyl-2-oxo-2,5-dihydro-1H-pyrrole-3-carboxamide], with 42 nM.
In the case of `CC1(N)CCN(c2cnc(Sc3cccc(NC(=O)C4=C(O)CN(c5ccccc5)C4=O)c3)c(N)n2)CC1` [Example 66, N-(3-((3-Amino-5-(4-amino-4-methylpiperidin-1-yl)pyrazin-2-yl)thio)phenyl)-4-hydroxy-2-oxo-1-phenyl-2,5-dihydro-1H-pyrrole-3-carboxamide], the 50% inhibitory concentration (IC50) came out at 17 nM.
In the case of `CC1(N)CCN(c2cnc(Sc3cccc(NC(=O)C4=C(O)CN(c5ccccc5)C4=O)c3C(F)(F)F)c(N)n2)CC1` [Example 67, N-(3-((3-Amino-5-(4-amino-4-methylpiperidin-1-yl)pyrazin-2-yl)thio)-2-(trifluoromethyl)phenyl)-4-hydroxy-2-oxo-1-phenyl-2,5-dihydro-1H-pyrrole-3-carboxamide] it was 4 nM.
